The text below walks through data of US10959995B2, “Methods of acute restoration of vascular compliance” (Alumend, LLC, priority 2013, dated 2021).

The test system of one data set is artery. The data set can be described thus: Arterial compression with other photoactivated material. Particulars: FIG. 13. How it is done: Singlet oxygen generating species, such as Rose Bengal, riboflavin, and methylene blue were tested to determine if they would be effective at arterial compression.
Data set [1] relates to hard (calcified) and soft plaque in diseased arteries. Put plainly: Plaque penetration: diseased arteries soaked with plaque softening composition, light activated, visual and histological examination. Details: species or system human. How it is done:
Diseased arteries were obtained from limb amputations (leg) due to advanced Periperal Arterial Disease (PAD) from patients at Avera McKennan hospital. The received arteries were evaluated and chosen such that the diseased section was of reasonable size to accommodate the treatment catheter balloon length being used. The catheter balloon diameter used was also matched to the diameter of the artery and capable of achieving a 1:1.25 (ratio of artery diameter to balloon diameter) overstretch. The artery was laid in a petri dish and an angioplasty balloon was inserted and inflated for 60 seconds to impart the desired overstretch. While the angioplasty balloon was inflated a permanent marker was used to define the treatment zone (where the overstretch was imparted by the balloon) on the outer surface of the artery. The angioplasty balloon was deflated and removed. The inner lumen of the diseased artery was exposed to a plaque softening composition comprising a compound of formula (V) naphthalimide formulation (2 mg/mL in phosphate buffered saline, pH=7.4) for a period of 5 minutes. For the purpose of filling the artery, one end was clamped, the artery was held upright and a syringe was used to dispense the naphthalimide solution until the inner lumen was filled. The open end of the artery was then clamped and the soaking period of 5 minutes commenced. […] Arteries were cut open lengthwise and the treated section was evaluated by visual examination.
Prior to cutting the artery for visual examination samples from the treated and untreated sections were collected and preserved for histological examination. […] After this time, samples were stored in a −80° C. freezer until ready for further analysis. […] The crystalline nature of hard plaque is readily visible without staining. Under this magnification the crystalline structure of the calcific plaque was readily visible, as shown in FIG. 8 the dark area between the two lighter colored areas of the media. […]

The nature of data set [2]: Storage stability of naphthalimide dimer (solution and powder). It is filed as physicochemical. The text has this:
A preparative HPLC approach was used to isolate and specifically purify the compound of formula (V) dimer from the compound of formula (V) naphthalimide product produced from the ethanol crystallization. The HPLC method used was based on the purity method outlined above; however, method modifications were made to replace acetonitrile with ethanol and TFA with acetic acid in the mobile phase. The preparative separation utilized a C18 column (X-bridge, 10 μm, 19×250 mm, Waters). The mobile phase consisted of mobile phase A, 0.1% acetic acid (aq), and mobile phase B, 9:1 ethanol:water (0.1% v/v acetic acid). The column was pre-equilibrated at a starting mobile phase of 95% A:5% B for 20 minutes, at the start of the gradient was a 2 minute hold followed by a linear gradient to 90% B at 40 minutes and a 10 minute hold. An injection volume of 8.5 mL (12 mg/mL purified compound of formula (V)) and flow rate of 8.5 mL/minute were used as well as a detector wavelength of 440 nm. The compound of formula (V) fractions were collected and analyzed using the analytical purity method presented above. Fractions meeting a minimum purity criterion were combined and the solvent driven off by rotovapping the solution to dryness. […] Finally the product was quantitatively transferred from the round bottom flask to a freeze drying flask by dissolving the product in a minimal amount of deionized water. […]

Data set [3] has as its system hard and soft plaque from common and lower femoral artery. Put plainly: Tissue immersion: plaque hardness by manual manipulation with forceps. Details: species or system human. Particulars: PBS pH 7.4. From the text: A sample of human tissue from the common and lower femoral artery was received. It was stored in saline and refrigerated until use. Based upon visual and tactile observations, the arteries were approximately 7-8 mm in diameter and contained evidence of both hard and soft plaque. The soft plaque has a yellow fatty appearance that is distinguishable from the vessel wall. The hard plaque presents itself as hard pieces of material that can be pulled (with a forceps) from the soft plaque. Sections of the artery suitable for catheter work were segregated and stored in phosphate buffered saline (PBS), pH=7.4. From the remaining arterial sections, pieces of tissue containing both hard and soft plaque were removed. These pieces were either placed in a solution of PBS (pH=7.4), or dimeric naphthalimide, such as a compound of formula (V) (which is in PBS, pH=7.4). Prior to immersion in either solution the relative hardness of the plaque was evaluated via manual manipulation with a forcep. After a 5 minute soak in solution (typical exposure time), no difference in the samples soaked in PBS was noticed (control). […] The samples were then left in their respective solutions for an additional 90 minutes.

A further data set has as its system artery tissue. The data set can be described thus: Angioplasty with plaque-softening composition and photoactivation: fissure observation. Details: species or system human. The procedure: The tissue was an artery approximately 7.4 mm in diameter. An Ultra-thin SDS 8 mm×30 mm catheter was used to dilate the artery to 7.55 mm (approximately a 2% overstretch). A fissure or a possible dissection running down the length of the tissue sample was observed.
A section (6.5 cm in length) of artery was exposed to the composition for 5 minutes. An 80 mm catheter was used to impart a 2% overstretch to the artery. The angioplasty was followed by photoactivation at 1800 mW for 60 seconds using the same 80 mm catheter with a 60 mm light fiber centered in the catheter.
A catheter with an 80 mm treatment zone balloon was used however the photoactivating light fiber was only 60 mm in length. During activation it was noted that the light fiber was shifted distally in the catheter. This meant that the distal end of the artery was receiving photoactivation, however, the proximal end received little or no light. A fissure down the length of the artery was again observed.

Setting [4] is: 2 mg/mL in PBS pH 7.4, 5 minute soak, 447 nm light activation 60 seconds.

Entries after “also recorded” stand apart in the source; their conditions may differ.

Regarding `O=C([O-])c1c(Cl)c(Cl)c(Cl)c(Cl)c1-c1c2cc(I)c(=O)c(I)c-2oc2c(I)c([O-])c(I)cc12.[Na+].[Na+]` [Rose Bengal], the “efficacy at arterial compression” value in the data set with artery is “No efficacy”.

Take `NCCOCCOCCNc1ccc2c3c(cccc13)C(=O)N(CCOCCOCCN1C(=O)c3cccc4c(NCCOCCOCCN)ccc(c34)C1=O)C2=O` [compound of formula (V)]: in data set [1] (setting [4]), the “tacking of intimal flaps” value is on record as “definitive observation of tacking of intimal flaps”; the “visual/tactile observation of plaque in treated region” value is “apparent softened plaque; also recorded: looked and felt softer and creamier”. Also, the “calcium crystals in treated sections under microscope” value in data set [1] (treated vs untreated sections of artery) is given as “less evidence of calcium crystals”. Moreover, the “degradation of dimer in powder form” value in data set [2] (periods exceeding one year of storage in a dessicator at room temperature) is listed as “no evidence of degradation”. Also, in data set [2] (solution at pH 7.4, periods up to one year), the “stability of dimer solution” value is listed as “excellent stability”. The “plaque hardness after soak” value in data set [3] (5 minute soak in solution) was “slight softening”. Moreover, the “plaque hardness after soak” value in data set [3] (additional 90 minutes in solution) is “significantly softer and more pliable”. Moreover, in the data set on artery tissue (angioplasty then composition, distal region with adequate photoactivation), the repair of fissure entry is recorded as “there appeared to be a seam indicating repair”. Also, the “fissure in opened artery” value in the data set on artery tissue (composition 5 minutes, then angioplasty 2% overstretch, photoactivation 1800 mW 60 seconds) was “no fissure observed”.

Take `CN(C)c1ccc2nc3ccc(=[N+](C)C)cc-3sc2c1` [methylene blue]: the “efficacy at arterial compression” value in the data set with artery is reported as “No efficacy”.

For the molecule `Cc1cc2nc3c(=O)[nH]c(=O)nc-3n(C[C@H](O)[C@H](O)[C@H](O)CO)c2cc1C` [riboflavin], in the data set on artery, the “efficacy at arterial compression” value is recorded as “No efficacy”.
